Laboratory results from ChEMBL document CHEMBL1201862, “PubChem BioAssay data set” (2004).
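Step 1: Grow cells in 96-well plates. Step 2: Expose to compound for 48 hours at 5 concentrations. Step 3: Interpolate endpoints linearly; if unreached, use highest concentration. Abbreviation: GI50, concentration required for 50% inhibition of growth.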 Calls of active or inactive are those of the source. No stated cut-off is given here; in the data, active = GI50 up to about 1.1 µM and inactive = higher.

Tests used:
Assay in all cases: NCI tumour cell line growth inhibition, 48 h
A498 = tested on: A498
A549 = tested on: A549
ACHN = tested on: ACHN
CAKI-1 = tested on: CAKI-1
CCRF-CEM = tested on: CCRF-CEM
COLO 205 = tested on: COLO 205
DLD-1 = tested on: DLD-1
DMS-114 = tested on: DMS-114
DMS-273 = tested on: DMS-273
EKVX = tested on: EKVX
HCC 2998 = tested on: HCC 2998
HCT-116 = tested on: HCT-116
HCT-15 = tested on: HCT-15
HL-60 = tested on: HL-60
HOP-62 = tested on: HOP-62
HOP-92 = tested on: HOP-92
HT-29 = tested on: HT-29
IGROV-1 = tested on: IGROV-1
K562 = tested on: K562
KM-20L2 = tested on: KM-20L2
KM12 = tested on: KM12
LOX IMVI = tested on: LOX IMVI
LXFL 529 = tested on: LXFL 529
M14 = tested on: M14
M19-MEL = tested on: M19-MEL
MOLT-4 = tested on: MOLT-4
NCI-H226 = tested on: NCI-H226
NCI-H23 = tested on: NCI-H23
NCI-H460 = tested on: NCI-H460
NCI-H522 = tested on: NCI-H522
OVCAR-4 = tested on: OVCAR-4
OVCAR-5 = tested on: OVCAR-5
OVCAR-8 = tested on: OVCAR-8
RPMI-8226 = tested on: RPMI-8226
RXF 393 = tested on: RXF 393
RXF 631 = tested on: RXF 631
SF-268 = tested on: SF-268
SF-295 = tested on: SF-295
SF-539 = tested on: SF-539
SK-MEL-28 = tested on: SK-MEL-28
SK-MEL-2 = tested on: SK-MEL-2
SK-MEL-5 = tested on: SK-MEL-5
SK-OV-3 = tested on: SK-OV-3
SN12C = tested on: SN12C
SNB-19 = tested on: SNB-19
SNB-75 = tested on: SNB-75
SNB-78 = tested on: SNB-78
SR = tested on: SR
SW-620 = tested on: SW-620
TK-10 = tested on: TK-10
U-251 = tested on: U-251
UACC-257 = tested on: UACC-257
UACC-62 = tested on: UACC-62
UO-31 = tested on: UO-31
XF498 = tested on: XF498

COC(=O)C(Cc1ccc2c(c1)OCO2)(NC(=O)c1ccccc1)P(=O)(OC)OC (stereo not given)
GI50 (A498): > 100 µM (inactive) | GI50 (A549): > 100 µM (inactive) | GI50 (ACHN): > 100 µM (inactive) | GI50 (CAKI-1): > 100 µM (inactive) | GI50 (CCRF-CEM): > 100 µM (inactive) | GI50 (COLO 205): > 100 µM (inactive) | GI50 (DLD-1): > 100 µM (inactive) | GI50 (DMS-114): > 100 µM (inactive) | GI50 (DMS-273): > 100 µM (inactive) | GI50 (EKVX): > 100 µM (inactive) | GI50 (HCC 2998): > 100 µM (inactive) | GI50 (HCT-116): > 100 µM (inactive) | GI50 (HCT-15): > 100 µM | GI50 (HL-60): > 100 µM (inactive) | GI50 (HOP-62): > 100 µM (inactive) | GI50 (HOP-92): > 100 µM (inactive) | GI50 (HT-29): > 100 µM (inactive) | GI50 (IGROV-1): > 100 µM (inactive) | GI50 (K562): > 100 µM (inactive) | GI50 (KM-20L2): > 100 µM (inactive) | GI50 (KM12): > 100 µM (inactive) | GI50 (LOX IMVI): > 100 µM (inactive) | GI50 (LXFL 529): > 100 µM (inactive) | GI50 (M14): > 100 µM (inactive) | GI50 (M19-MEL): > 100 µM (inactive) | GI50 (MOLT-4): > 100 µM (inactive) | GI50 (NCI-H226): > 100 µM (inactive) | GI50 (NCI-H23): > 100 µM (inactive) | GI50 (NCI-H460): > 100 µM (inactive) | GI50 (NCI-H522): > 100 µM (inactive) | GI50 (OVCAR-4): > 100 µM (inactive) | GI50 (OVCAR-5): > 100 µM (inactive) | GI50 (OVCAR-8): > 100 µM (inactive) | GI50 (RPMI-8226): > 100 µM (inactive) | GI50 (RXF 393): > 100 µM (inactive) | GI50 (RXF 631): > 100 µM (inactive) | GI50 (SF-268): > 100 µM (inactive) | GI50 (SF-295): > 100 µM (inactive) | GI50 (SF-539): > 100 µM (inactive) | GI50 (SK-MEL-28): > 100 µM (inactive) | GI50 (SK-MEL-2): 63.5 µM (inactive) | GI50 (SK-MEL-5): > 100 µM (inactive) | GI50 (SK-OV-3): > 100 µM (inactive) | GI50 (SN12C): > 100 µM (inactive) | GI50 (SNB-19): > 100 µM (inactive) | GI50 (SNB-75): > 100 µM (inactive) | GI50 (SNB-78): > 100 µM (inactive) | GI50 (SR): > 100 µM (inactive) | GI50 (SW-620): > 100 µM (inactive) | GI50 (TK-10): > 100 µM (inactive) | GI50 (U-251): > 100 µM (inactive) | GI50 (UACC-257): > 100 µM (inactive) | GI50 (UACC-62): > 100 µM (inactive) | GI50 (UO-31): > 100 µM (inactive) | GI50 (XF498): > 100 µM (inactive)
